Activity calls are given as the source filed them. No cut-off for these calls is given here.

Series [1] relates to SW480. Kind of series: Antiproliferative activity against human SW480 cells after 48 hrs by MTT assay. It is filed as functional, cell-based. The settings on record: SW480, 48 h. A general note: Formazan colour is commonly taken as a measure of viable cells.
For series [2], the system named is HT-29. Kind of series: cells. The settings on record: Homo sapiens, HT-29, 48 h.
Description: Antiproliferative activity against human HT-29 cells after 48 hrs by MTT assay
In the next series the test system is HepG2. Nature of the series: cells. The settings on record: Homo sapiens, HepG2, 48 h.
The nature of series [3]: Antiproliferative activity against human DLD1 cells after 48 hrs by MTT assay. The class given is functional, cell-based. The settings on record: DLD-1, 48 h.
Series [4] in a line: Cytotoxicity against mouse BNL-CL2 cells after 48 hrs by MTT assay. The conditions noted are these: BNL CL.2, 48 h. It is filed as cell-based.
Series [5] can be described thus: Antioxidant activity assessed as ABTS radical scavenging activity after 6 mins by photometric analysis. The class given is physicochemical.
Series [6] can be described thus: Antioxidant activity assessed as DPPH radical scavenging activity after 30 mins by ELISA reader analysis. It is filed as physicochemical.
A short description of series [7]: Antiproliferative activity against human DLD1 cells after 72 hrs by MTT assay. The settings on record: DLD-1, 72 h. The class given is functional, cell-based.
For series [8], the system named is SW480. Nature of the series: Cell cycle arrest in human SW480 cells assessed as accumulation at G2/M phase at 10 uM after 48 hrs by propidium iodide staining-based flow cytometric analysis (reference value: 8.57%). It is filed as functional.
Series [9] deals with SW480. Kind of series: Cell cycle arrest in human SW480 cells assessed as accumulation at G2/M phase at 20 uM after 48 hrs by propidium iodide staining-based flow cytometric analysis (reference value: 8.57%). The class given is functional.
Series [10] relates to SW480. Kind of series: Induction of apoptosis in human SW480 cells assessed as DNA fragmentation at 20 uM after 48 hrs by Hoechst 33258 staining-based fluorescence microscopic analysis. The class given is functional, cell-based.
The test system of series [11] is SW480. Nature of the series: Induction of ROS generation in human SW480 cells assessed as superoxide anion level at 20 uM after 48 hrs by DHE staining-based fluorescence assay (reference value: 101.21 No_Unit). It is filed as functional.
Series [12] relates to SW480. Nature of the series: Cell cycle arrest in human SW480 cells assessed as accumulation at S phase at 5 uM after 48 hrs by propidium iodide staining-based flow cytometric analysis (reference value: 26.19%). The class given is functional. In general terms: A flow cytometer gives signals particle by particle.
Series [13] deals with SW480. Nature of the series: Induction of ROS generation in human SW480 cells after 48 hrs by DHE staining-based fluorescence assay. It is filed as functional, cell-based.
For series [14], the system named is SW480. Nature of the series: Cell cycle arrest in human SW480 cells assessed as accumulation at G1 phase at 5 uM after 48 hrs by propidium iodide staining-based flow cytometric analysis (reference value: 65.24%). The class given is functional.
Series [15] has as its system SW480. Kind of series: Cell cycle arrest in human SW480 cells assessed as accumulation at G2/M phase at 5 uM after 48 hrs by propidium iodide staining-based flow cytometric analysis (reference value: 8.57%). The class given is functional.
The test system of series [16] is SW480. Kind of series: Cell cycle arrest in human SW480 cells assessed as accumulation at G1 phase at 10 uM after 48 hrs by propidium iodide staining-based flow cytometric analysis (reference value: 65.24%). It is filed as functional.
In series [17] the test system is SW480. Nature of the series: Induction of ROS generation in human SW480 cells assessed as superoxide anion level at 5 uM after 48 hrs by DHE staining-based fluorescence assay (reference value: 101.21). It is filed as functional.
Series [18] concerns SW480. Kind of series: Antiproliferative activity against human SW480 cells after 72 hrs by MTT assay. The class given is functional, cell-based. The settings on record: SW480, 72 h.
Series [19] has as its system SW480. Nature of the series: Cell cycle arrest in human SW480 cells assessed as accumulation at S phase at 50 uM after 48 hrs by propidium iodide staining-based flow cytometric analysis. The class given is functional.
For series [20], the system named is HT-29. Kind of series: Antiproliferative activity against human HT-29 cells after 72 hrs by MTT assay. It is filed as functional, cell-based. The conditions noted are these: HT-29, 72 h.
The nature of series [21]: Antiproliferative activity against human DLD1 cells after 24 hrs by MTT assay. The class given is functional, cell-based. The settings on record: DLD-1, 24 h.
In series [22] the test system is SW480. Nature of the series: Induction of apoptosis in human SW480 cells assessed as chromatin condensation at 20 uM after 48 hrs by Hoechst 33258 staining-based fluorescence microscopic analysis. It is filed as functional, cell-based.
Series [23] has as its system SW480. Kind of series: Antiproliferative activity against human SW480 cells after 24 hrs by MTT assay. It is filed as functional, cell-based. The settings on record: SW480, 24 h.
Series [24] concerns SW480. Kind of series: Induction of ROS generation in human SW480 cells assessed as superoxide anion level at 10 uM after 48 hrs by DHE staining-based fluorescence assay (reference value: 101.21 No_Unit). The class given is functional.
The subject of series [25] is SW480. Kind of series: Induction of apoptosis in human SW480 cells assessed as early apoptotic cells at 20 uM after 48 hrs by annexin V-FITC/propidium iodide staining-based flow cytometric analysis. It is filed as functional, cell-based.
The test system of series [26] is SW480. Nature of the series: Cell cycle arrest in human SW480 cells assessed as accumulation at S phase at 10 uM after 48 hrs by propidium iodide staining-based flow cytometric analysis (reference value: 26.19%). The class given is functional.
Series [27] relates to SW480. Kind of series: Cell cycle arrest in human SW480 cells assessed as accumulation at G1 phase at 20 uM after 48 hrs by propidium iodide staining-based flow cytometric analysis (reference value: 65.24%). The class given is functional.
The test system of series [28] is SW480. Kind of series: Cell cycle arrest in human SW480 cells assessed as accumulation at S phase at 20 uM after 48 hrs by propidium iodide staining-based flow cytometric analysis (reference value: 26.19%). The class given is functional.
The test system of series [29] is SW480. Kind of series: Induction of apoptosis in human SW480 cells assessed as nuclear shrinkage at 20 uM after 48 hrs by Hoechst 33258 staining-based fluorescence microscopic analysis. It is filed as functional, cell-based.
The test system of series [30] is HT-29. Kind of series: Antiproliferative activity against human HT-29 cells after 24 hrs by MTT assay. The class given is functional, cell-based. The settings on record: HT-29, 24 h.
Series [31] deals with SW480. Kind of series: Induction of apoptosis in human SW480 cells assessed as late apoptotic cells at 20 uM after 48 hrs by annexin V-FITC/propidium iodide staining-based flow cytometric analysis. The class given is functional, cell-based.
Series [32] concerns SW480. Nature of the series: Induction of apoptosis in human SW480 cells assessed as early apoptotic cells after 48 hrs by annexin V-FITC/propidium iodide staining-based flow cytometric analysis. The class given is functional, cell-based.

In the case of `CC(C)=CCC/C(C)=C/CC/C(C)=C/COc1cc(O)c2c(=O)cc(-c3ccccc3)oc2c1`, the IC50 (with SW480 [1]; in the series with HT-29 [2]; in the series with HepG2; in series [3]; in series [4]) was above 20 µM each time.
Turning to `CC(C)=CCOc1cc2oc(-c3ccccc3)cc(=O)c2c(O)c1O`, the concentration for half-maximal inhibition (IC50) (commonly the concentration that gives 50% inhibition) in series [5] is 18.8 µM; in [6] it was 24 µM; in the series on SW480 [1] it was 8.6 µM; in the series with HT-29 [2], above 20 µM; in the series on HepG2 it was above 20 µM; in series [3] it was above 20 µM. Moreover, the half-inhibitory concentration (IC50) in series [4] was above 20 µM.
Consider `Cc1c(C)c2c(c(C)c1O)CCC(C)(C(=O)O)O2` (configuration not stated) [TROLOX], for which the IC50 turned out to be 16.8 µM in series [5] and 22.7 µM in [6].
For the molecule `O=C1O[C@H]([C@@H](O)CO)C(O)=C1O` [ASCORBIC ACID], the IC50 in series [5] stood at 18.3 µM; in series [6], 27.3 µM.
Consider `O=c1cc(-c2ccccc2)oc2cc(O)c(O)c(O)c12` [BAICALEIN], for which the IC50 in [7] was above 20 µM; in [5] it was 15.5 µM; in series [6] it was 17.2 µM; in the series on SW480 [1] it was 14.1 µM; with SW480 [18], 11.6 µM; in the series with HT-29 [20], 18.4 µM. Further, the IC50 was above 20 µM in series [21]; 16.9 µM in the series on SW480 [23]; 18.1 µM in the series with HT-29 [2]; 27.9 µM in [3]; above 20 µM in the series on HT-29 [30]; above 40 µM in [4]. Also, the Activity in the series on SW480 [8] was 7.05%; in the series on SW480 [9] it was 7.95%; with SW480 [12], 28.61%; in the series on SW480 [13], “Dose-dependent effect”; in the series with SW480 [14] it was 63.64%; in the series with SW480 [15] it was 7.75%. Further, the Activity in the series on SW480 [16] is recorded as 64.29%; with SW480 [26], 28.65%; in the series on SW480 [27] it was 64.54%; in the series with SW480 [28], 27.51%. In addition, the result in the series with SW480 [10], in the series with SW480 [19], in the series with SW480 [22], in the series on SW480 [25], in the series with SW480 [29] and in the series with SW480 [31] was Active. In addition, the figures for the Flu intensity in the series with SW480 [11], with SW480 [17] and with SW480 [24] were 98.79, 104.84 and 99.49, respectively. The result in the series with SW480 [32] was inactive.
Turning to `CC(C)=CCC/C(C)=C/COc1cc2oc(-c3ccccc3)cc(=O)c2c(O)c1O`, the half-inhibitory concentration (IC50) was 20.4 µM in series [5]; 24.3 µM in [6]; 2.84 µM with SW480 [1]; 17 µM in the series with HT-29 [2]; above 20 µM in the series with HepG2; 9.77 µM in series [3]. In addition, the IC50 in series [4] was above 20 µM.
For `COc1c(O)cc(O)c2c(=O)cc(-c3ccccc3)oc12` [WOGONIN], the concentration for half-maximal inhibition (IC50) was 35.1 µM in the series on SW480 [1]; 39.6 µM in the series with HT-29 [2]; 37.9 µM in the series on HepG2; 36.9 µM in series [3]; above 40 µM in series [4].
In the case of `O=c1c(O)c(-c2ccc(O)c(O)c2)oc2cc(O)cc(O)c12` [QUERCETIN], the concentration for half-maximal inhibition (IC50) in [5] amounted to 7.26 µM; in [6] it was 8.41 µM.

The values above are taken from ChEMBL document CHEMBL3751778, “Synthesis and biological evaluation of novel 7-O-lipophilic substituted baicalein derivatives as potential anticancer agents” (Medchemcomm, 2015).
